In PubChem BioAssay (NCI) one finds GI50 and TGI data, which are given here for six molecules.

Among the test systems are SF-539 CNS; MALME-3M melanoma; IGROV1 ovarian; KM12 colon; HT29 colon; CAKI-1 renal; NCI-H226 lung; 786-0 renal; HCT-15 colon; HS 578T breast.
Holding throughout (test): DTP human tumour cell line panel, 48 h

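1) Cells in 96-well plates. 2) Compound, 48 h, 5 concentrations. 3) Linear interpolation between surrounding doses. 4) Unreached endpoint = highest concentration. Here, GI50 denotes the concentration required for 50% inhibition of growth. TGI marks complete inhibition of growth.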

Usually GI50 stands for the concentration that inhibits growth by half. Broadly, the TGI is the concentration at which net growth stops.

In the case of `COc1ccc2nc(N/N=C(\C)c3ccccn3)cc(C)c2c1`, the GI50 in the assay with SF-539 CNS is 0.269 µM; with MALME-3M melanoma, 0.23 µM; in the assay with IGROV1 ovarian, 0.219 µM; in the assay on KM12 colon it was 0.321 µM; in the assay with HT29 colon, 0.116 µM; in the assay with CAKI-1 renal it was 0.271 µM. The GI50 in the assay on NCI-H226 lung is 0.222 µM; with 786-0 renal, 0.284 µM; with HCT-15 colon it was 0.0916 µM; with HS 578T breast it was 1.76 µM. Also, the TGI in the assay with SF-539 CNS amounted to 1.23 µM; in the assay with MALME-3M melanoma, 0.697 µM; in the assay on IGROV1 ovarian, 1.05 µM; in the assay on KM12 colon it was 1.6 µM; in the assay on CAKI-1 renal, 1.17 µM; with NCI-H226 lung it was 1 µM. In addition, the results for the TGI with 786-0 renal, in the assay on HCT-15 colon and in the assay with HS 578T breast were 1.21 µM, 1.65 µM and 9.39 µM, respectively.

Consider `COc1cc(/C(C#N)=C/c2ccc3c(c2OC)OCO3)cc2c1OCO2`, for which the GI50 in the assay with SF-539 CNS is 0.0964 µM; with MALME-3M melanoma, 0.264 µM; with IGROV1 ovarian it was 0.165 µM; with KM12 colon, 0.0424 µM; in the assay on HT29 colon, 0.0379 µM; in the assay on CAKI-1 renal, 0.0933 µM. Further, the GI50 with NCI-H226 lung was 0.603 µM; with 786-0 renal, 0.2 µM; in the assay on HCT-15 colon, 0.0748 µM; in the assay with HS 578T breast it was 0.0448 µM. Further, the TGI with SF-539 CNS is 2.29 µM; in the assay with MALME-3M melanoma it was 41.1 µM; in the assay with IGROV1 ovarian, 42.3 µM; with KM12 colon it was above 100 µM; with HT29 colon it was 1.04 µM; in the assay with CAKI-1 renal, above 100 µM. Also, the TGI in the assay on NCI-H226 lung was 36.4 µM; in the assay on 786-0 renal it was 21.5 µM; with HCT-15 colon, above 100 µM; in the assay on HS 578T breast it was 0.4 µM.

With `CS(=O)(=O)CCNCc1nc(-c2ccc3ncnc(Nc4ccc(F)c(Cl)c4)c3c2)cs1`, the GI50 with SF-539 CNS was above 25 µM; in the assay with MALME-3M melanoma, above 23.6 µM; with IGROV1 ovarian it was 7.39 µM; in the assay on KM12 colon, 21.1 µM; in the assay with HT29 colon, 16.5 µM; with CAKI-1 renal, 1.47 µM. Besides, the GI50 was above 18.1 µM in the assay with NCI-H226 lung, 22.9 µM in the assay on 786-0 renal, 17.5 µM with HCT-15 colon and 15.9 µM with HS 578T breast. Also, the TGI with SF-539 CNS, in the assay on MALME-3M melanoma, in the assay on IGROV1 ovarian, with KM12 colon, with HT29 colon and in the assay with CAKI-1 renal was above 25 µM throughout. For the same molecule, the TGI in the assay on NCI-H226 lung, in the assay on 786-0 renal, in the assay with HCT-15 colon and in the assay on HS 578T breast was above 25 µM throughout.

Take `COC(=O)N[C@H]1CCc2c(Br)c(OC)c(OC)c(OC)c2-c2ccc(SC)c(=O)cc21`: the GI50 in the assay on SF-539 CNS is below 0.01 µM; in the assay with MALME-3M melanoma, 0.0148 µM; with IGROV1 ovarian, below 0.01 µM; with KM12 colon, below 0.01 µM; with HT29 colon, below 0.01 µM; with CAKI-1 renal it was below 0.0209 µM. Further, the GI50 is below 0.01 µM in the assay with NCI-H226 lung, below 0.0163 µM in the assay on 786-0 renal, below 0.01 µM in the assay with HCT-15 colon and below 0.01 µM in the assay with HS 578T breast. In addition, the total growth inhibition concentration (TGI) in the assay with SF-539 CNS is below 0.01 µM; in the assay with MALME-3M melanoma, 30.5 µM; in the assay with IGROV1 ovarian, above 39.5 µM; with KM12 colon, 10.6 µM; in the assay on HT29 colon it was 18.8 µM; in the assay on CAKI-1 renal, 21.9 µM. Moreover, the TGI with NCI-H226 lung was 10.8 µM; in the assay with 786-0 renal it was 24.8 µM; with HCT-15 colon it was 11.6 µM; in the assay with HS 578T breast, above 52.1 µM.

For `O=C(CN1CCN(c2ncccn2)CC1)Nc1ccc(Cl)cc1C(=O)c1ccccc1Cl`, the GI50 with SF-539 CNS is above 100 µM; in the assay on MALME-3M melanoma it was above 100 µM; with IGROV1 ovarian it was 93.2 µM; in the assay with KM12 colon, 69 µM; with HT29 colon, 63.6 µM; in the assay on CAKI-1 renal, above 100 µM. Further, the GI50 in the assay with NCI-H226 lung is above 100 µM; in the assay with 786-0 renal, 62 µM; in the assay on HCT-15 colon it was above 100 µM; with HS 578T breast, 83.6 µM. Moreover, the TGI in the assay on SF-539 CNS, in the assay on MALME-3M melanoma, in the assay with IGROV1 ovarian, with KM12 colon, with HT29 colon and in the assay on CAKI-1 renal was above 100 µM in each case. Further, the TGI with NCI-H226 lung, in the assay with 786-0 renal, in the assay on HCT-15 colon and in the assay on HS 578T breast was above 100 µM throughout.

As for `O=P(O)(CCP(=O)(O)c1ccccc1)c1ccccc1`, the TGI in the assay with SF-539 CNS, in the assay with MALME-3M melanoma, with IGROV1 ovarian, with KM12 colon, in the assay on HT29 colon and in the assay with CAKI-1 renal was above 100 µM in each case. In addition, the TGI in the assay on NCI-H226 lung, with 786-0 renal, with HCT-15 colon and with HS 578T breast was above 100 µM in each case.
